Laboratory results published in BigSolDB 2.1.

CC1=C(O)C(=O)C(C)O1 (configuration not stated)
solubility (mole fraction)
Settings | 283.15 K | 288.15 K | 293.15 K | 298.15 K | 303.15 K | 308.15 K | 313.15 K
in ethanol | 0.12 | 0.151 | 0.188 | 0.234 | 0.287 | 0.351 | 0.427
in methanol | 0.143 | 0.174 | 0.21 | 0.257 | 0.31 | 0.374 | 0.449
in n-butanol | 0.0954 | 0.124 | 0.156 | 0.196 | 0.247 | 0.307 | 0.382
in n-hexane | 0.0054 | 0.0073 | 0.0096 | 0.0125 | 0.0163 | 0.0211 | 0.0271
in n-propanol | 0.11 | 0.138 | 0.174 | 0.216 | 0.268 | 0.332 | 0.408
in water | 0.0091 | 0.015 | 0.0251 | 0.0408 | 0.0665 | 0.107 | 0.173
